This is an account of results in US10472677B2, “Translational dysfunction based therapeutics” (Translational Therapeutics, Inc., priority 2005, dated 2019).

For assay [1], the target named is T1, eIF4E (G4E) (UniProt P06654+P63073).
T1 construct: made in house; host or cells: E. coli BL21 (DE-3); construct a gift of Gerhard Wagner
Description: electrospray mass spectrometry of purified G4E with Ribavirin and GTP. The assay is classed as binding, mouse. The note with it: mixture of Ribavirin and GTP, fourfold excess. On the procedure:
FIG. 10. […] Mass spectra were recorded using the Agilent Technologies 1100 LC/MSD integrated liquid chromatograph single quadrupole electrospray mass spectrometer (ES-MS) operating in positive ion mode. […]; The solution was electrosprayed directly at […] using nebulizer pressure of 20 psi, drying nitrogen gas at 200° C. and 10 L/min, and capillary voltage of 4.5 kV. (a) ES-MS spectrum plotting ion abundance in 20 uL of the above mixture as a function of the mass/charge ratio is shown. […]. Thus, obtaining affinities from mass spectrometry data is confounded by these differences in ionization.

The test system of assay [2] is eIF4E nuclear bodies in NIH 3T3 cells. Description: subcellular eIF4E organization, confocal immunofluorescence and fractionation/Western. Format: cell-based, mouse. On the procedure:
NIH 3T3 mouse fibroblasts were maintained under subconfluent conditions in DMEM (GIBCO/BRL)/10% (vol/vol) FBS/2 mM […]/0.1 mg/ml penicillin-streptomycin, at 37° C. in 5% CO2. For cell treatments, drugs were dissolved in PBS (pH 7.4) and filter-sterilized. Untreated cells received filter-sterilized PBS.
Cells were washed with PBS, fixed in methanol for 20 min at −20° C., and blocked in PBS, 10% (vol/vol) FBS, and 0.1% (vol/vol) Tween 20 for 30 min at room temperature. Blocked cells were stained with primary antibodies against Nopp140 [1:50 (2)], Sc35 (1:50, Becton Dickinson), and eIF4E (1:50, Transduction Laboratories) in blocking solution for 3 h at room temperature. Upon washing with PBS, cells were stained with secondary antibodies in blocking solution for 30 min. FITC-conjugated donkey anti-rabbit antibody (Jackson ImmunoResearch), Texas red-conjugated donkey anti-mouse antibody, and FITC-conjugated rabbit anti-mouse antibody, as appropriate. […] Fluorescence was observed by using 100× optical magnification and 2× digital zoom using Leica TCS-SP confocal microscope using excitation wavelengths of 488, 568, or 351/364 nm. All channels were detected separately, with no observable crosstalk. […]
Cells were washed twice with PBS and lysed by slow pipetting in 0.14 M NaCl/10 mM Tris.HCl (pH 8.4)/1.5 mM MgCl2/0.5% (vol/vol) Nonidet P-40/1 mM DTT/100 units/ml RNasin (Promega) at 4° C. […] This yielded intact nuclei, as observed by using light microscopy, with no significant cytoplasmic contamination, as evaluated using tRNA^Lys and β-actin contents. […]
Protein from whole cells or nuclear and cytoplasmic fractions was extracted by using 0.15 M NaCl/50 mM Tris.HCl (pH 7.4)/1% (vol/vol) Nonidet P-40/0.25% (wt/vol) sodium deoxycholate/1 mM EDTA/1 mM PMSF by incubating for 30 min at 4° C. […] Bound antibodies were chemiluminescently detected by using horseradish peroxidase-conjugated secondary antibodies (Amersham Pharmacia) and SuperSignal West Pico reagent according to manufacturer's instructions (Pierce).

In assay [3] the target is T2, eIF4E W56A (Mus musculus, UniProt P63073, W56A).
T2 construct: made in house
T2 sequence (P63073 whole entry W56A): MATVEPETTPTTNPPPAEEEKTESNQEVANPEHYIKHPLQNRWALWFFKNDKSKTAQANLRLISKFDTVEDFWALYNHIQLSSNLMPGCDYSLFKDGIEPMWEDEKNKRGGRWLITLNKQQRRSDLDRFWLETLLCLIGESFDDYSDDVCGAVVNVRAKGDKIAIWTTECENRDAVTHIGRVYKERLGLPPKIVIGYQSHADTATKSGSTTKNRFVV
Put plainly: tryptophan fluorescence quenching titration, cap-binding site mutant. The note with it: relative to wild-type eIF4E. On the procedure:
For fluorescence titrations, mouse eIF4E, which differs from human eIF4E by four nonconserved amino acids, was produced as described. For NMR spectroscopy, mouse eIF4E was expressed as a fusion with the B1 domain of protein G (G4E, kind gift of Gerhard Wagner, Harvard University, Cambridge, Mass.), in BL21 (DE-3) cells by induction with 0.8 mM isopropyl-β-D-thiogalactopyranoside at 18° C. for 20 h in M9 minimal media containing 1 g/l ^15NH4Cl as the sole nitrogen source (Cambridge Isotopes). […] Eluate was dialyzed extensively against 0.1 M NaCl/50 mM Na2PO4 (pH 6.5)/5 mM DTT at 4° C. to produce apo-G4E, as verified by using NMR spectroscopy and fluorescence titrations. […]
Fluorescence measurements were performed by using a home-built fluorimeter, as described. All titrations were performed in 0.3 M NaCl/10 mM Na2PO4 (pH 7.5)/1 μM zinc in 0.3×0.3 cm^2 fluorescence cuvette (Hellma), by using eIF4E concentration of 2 μM. […] Corrected relative fluorescence intensities were normalized, and fluorescence quenching curves were fit to a heuristic single-site-binding expression: I/I0=Kd^n/(x^n+Kd^n) where x is ligand concentration, Kd is the apparent dissociation constant, and n is the Hill coefficient.

T1 sequence (P06654+P63073 fused): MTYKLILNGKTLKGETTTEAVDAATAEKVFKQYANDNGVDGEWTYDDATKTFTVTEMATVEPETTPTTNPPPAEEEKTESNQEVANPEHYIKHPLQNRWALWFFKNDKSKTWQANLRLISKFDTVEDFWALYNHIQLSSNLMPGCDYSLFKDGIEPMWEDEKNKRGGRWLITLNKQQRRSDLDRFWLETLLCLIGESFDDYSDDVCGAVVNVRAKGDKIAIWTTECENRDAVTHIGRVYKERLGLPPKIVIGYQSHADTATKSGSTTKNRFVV

Turning to `NC(=O)c1ncn([C@@H]2O[C@H](CO)[C@@H](O)[C@H]2O)n1` [Ribavirin, 1-β-D-ribofuranosyl-1,2,4-triazole-3-carboxamide], the “binding to eIF4E observed by mass shift” value in assay [1] is given as “specific binding”. For the same compound, in assay [2] (Mus musculus, NIH3T3, NIH 3T3, read-out: EC50 disruption of nuclear eIF4E bodies and cytoplasmic retention of eIF4E), the EC50 fell in the range of 100 to 1000 nM. Also, in assay [2] (NIH 3T3, 48 h), the “concentration at which disruption of eIF4E nuclear bodies is evident” value stood at 1 µM and the “concentration at which disruption of eIF4E nuclear bodies is nearly complete” value was 10 µM. Besides, the “reduction of Ribavirin affinity by W56A mutation” value in assay [3] came to 14 fold.

A word on the EC50: it is the concentration giving half of the maximal effect.
